Measurements published in patent publication US20030212014A1 (priority 2000, published 2003).

Tested on: HUVEC
Assay: Apoptosis in HUVEC incubated with 2-bromopalmitate
Assay type: cell-based, human
Details: inhibition of free fatty acid oxidation
Protocol: To test this notion, experiments were performed in HUVEC incubated with 2-bromopalmitate, an inhibitor of CPT1 which inhibits free fatty oxidation, or a higher concentration of free fatty acids (0.5 mM vs. 0.1 mM palmitate).

`CCCCCCCCCCCCCCC(Br)C(=O)O` (stereo not shown) [2-bromopalmitate] was tested. Which apoptosis did it give?
Its apoptosis is “promotes apoptosis”.
